Test results published in US20240366598A1, “GLUCOSE-DEPENDENT INSULINOTROPIC POLYPEPTIDE RECEPTOR ANTAGONISTS AND USES THEREOF” (Pfizer Inc., priority 2023, published 2024).

Biological target: T1, human Glucose-dependent Insulinotropic Polypeptide Receptor (hGIPR) (Homo sapiens, UniProt P48546)
T1 sequence (P48546 22-466): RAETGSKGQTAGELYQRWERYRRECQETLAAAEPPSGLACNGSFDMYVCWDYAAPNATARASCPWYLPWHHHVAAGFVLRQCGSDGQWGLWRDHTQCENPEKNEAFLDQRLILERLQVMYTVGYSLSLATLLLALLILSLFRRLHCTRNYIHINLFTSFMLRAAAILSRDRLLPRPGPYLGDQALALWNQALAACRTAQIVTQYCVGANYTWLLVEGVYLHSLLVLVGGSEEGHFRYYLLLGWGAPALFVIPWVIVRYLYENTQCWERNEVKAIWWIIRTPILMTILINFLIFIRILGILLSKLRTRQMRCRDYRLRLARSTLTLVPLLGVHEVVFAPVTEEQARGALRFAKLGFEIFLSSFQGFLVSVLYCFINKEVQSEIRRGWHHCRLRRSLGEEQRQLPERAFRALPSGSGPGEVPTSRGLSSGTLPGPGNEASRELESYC
Test: Functional in vitro GIPR antagonist potency assay (cAMP HTRF, CHO-K1 cells stably expressing hGIPR, hGIP stimulation at about EC80)
Assay type: cell-based
Conditions: geometric mean, hGIP at estimated EC80, examples marked ^2: overall geometric mean of multiple forms (including salts) tested
How it was run: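 CHO-K1 cells expressing hGIPR (2,000 per well) in HBSS/HEPES/0.1% BSA with 200 μM IBMX were preincubated 2 h at 37 °C with an 11-point compound series (0.5% DMSO). hGIP at about EC80 was then added for 30 min, and cAMP was read by HTRF (665/620 nm). Data were normalized between hGIP alone and full antagonism by a reference antagonist at 80 μM.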

IC50 | Compound
540 nM | CC(C)c1ccc(NC(=O)N2CCC[C@@H]2C(=O)Nc2ccc(-c3cc(C(=O)O)c(F)cc3F)cc2)cc1 [Example 45, 4,6-difluoro-4′-[(1-{[4-(propan-2-yl)phenyl]carbamoyl}-D-prolyl)amino][1,1′-biphenyl]-3-carboxylic acid]
160 nM | CC(C)c1ccc(NC(=O)N2CCC[C@@H]2C(=O)Nc2ccc(-c3ccc(O)cc3)cc2)cc1 [Example 46, (2R)-N^2-(4′-hydroxy[1,1′-biphenyl]-4-yl)-N^1-[4-(propan-2-yl)phenyl]pyrrolidine-1,2-dicarboxamide]
47 nM | CC(C)c1ccc(NC(=O)N2CCC[C@@H]2C(=O)Nc2ccc(-c3cc(F)c(O)cc3F)cc2)cc1 [Example 47, (2R)-N^2-(2′,5′-difluoro-4′-hydroxy[1,1′-biphenyl]-4-yl)-N^1-[4-(propan-2-yl)phenyl]pyrrolidine-1,2-dicarboxamide]
23 nM | CC(C)c1ccc(NC(=O)N2CCC[C@@H]2C(=O)Nc2ccc(-c3c(F)cc(C(=O)O)cc3F)cc2)cc1 [Example 48, 2,6-difluoro-4′-[(1-{[4-(propan-2-yl)phenyl]carbamoyl}-D-prolyl)amino][1,1′-biphenyl]-4-carboxylic acid]
14 nM | CC(C)c1ccc(NC(=O)N2CCC[C@@H]2C(=O)Nc2ccc(-c3ccc(C(=O)O)cc3C(F)(F)F)cc2)cc1 [Example 49, 4′-[(1-{[4-(propan-2-yl)phenyl]carbamoyl}-D-prolyl)amino]-2-(trifluoromethyl)[1,1′-biphenyl]-4-carboxylic acid]
83 nM | Cc1cc(C(=O)O)cc(-c2ccc(NC(=O)[C@H]3CCCN3C(=O)Nc3ccc(C(C)C)cc3)cc2)c1 [Example 50, 5-methyl-4′-[(1-{[4-(propan-2-yl)phenyl]carbamoyl}-D-prolyl)amino][1,1′-biphenyl]-3-carboxylic acid]
280 nM | CC(C)c1ccc(NC(=O)N2CCC[C@@H]2C(=O)Nc2ccc(-c3ccc(O)cc3F)cc2)cc1 [Example 51, (2R)-N^2-(2′-fluoro-4′-hydroxy[1,1′-biphenyl]-4-yl)-N^1-[4-(propan-2-yl)phenyl]pyrrolidine-1,2-dicarboxamide]
120 nM | Cc1cc(-c2ccc(NC(=O)[C@H]3CCCN3C(=O)Nc3ccc(C(C)C)cc3)cc2)ccc1C(N)=O [Example 52, (2R)-N^2-(4′-carbamoyl-3′-methyl[1,1′-biphenyl]-4-yl)-N^1-[4-(propan-2-yl)phenyl]pyrrolidine-1,2-dicarboxamide]
15 nM | Cc1cc(-c2ccc(NC(=O)[C@H]3CCCN3C(=O)Nc3ccc(C(C)C)cc3)cc2)cc(C)c1C(=O)O [Example 53, 3,5-dimethyl-4′-[(1-{[4-(propan-2-yl)phenyl]carbamoyl}-D-prolyl)amino][1,1′-biphenyl]-4-carboxylic acid]
140 nM | CC(C)c1ccc(NC(=O)N2CCC[C@@H]2C(=O)Nc2ccc(-c3ccc(O)c(F)c3)cc2)cc1 [Example 54, (2R)-N^2-(3′-fluoro-4′-hydroxy[1,1′-biphenyl]-4-yl)-N^1-[4-(propan-2-yl)phenyl]pyrrolidine-1,2-dicarboxamide]
7.6 nM | O=C(O)c1ccc(-c2ccc(NC(=O)[C@H]3CCCN3C(=O)Nc3ccc(C(F)(F)F)c(Cl)c3)cc2)cn1 [Example 55, 5-{4-[(1-{[3-chloro-4-(trifluoromethyl)phenyl]carbamoyl}-D-prolyl)amino]phenyl}pyridine-2-carboxylic acid]
6.3 nM | CC(C)c1ccc(NC(=O)N2CCC[C@@H]2C(=O)Nc2ccc(-c3ccc(C(=O)O)cc3F)cc2)cc1 [Example 56, 2-fluoro-4′-[(1-{[4-(propan-2-yl)phenyl]carbamoyl}-D-prolyl)amino][1,1′-biphenyl]-4-carboxylic acid]
65 nM | Cc1cc(C(=O)O)ncc1-c1ccc(NC(=O)[C@H]2CCCN2C(=O)Nc2ccc(C(C)C)cc2)cc1 [Example 57, 4-methyl-5-{4-[(1-{[4-(propan-2-yl)phenyl]carbamoyl}-D-prolyl)amino]phenyl}pyridine-2-carboxylic acid]
50 nM | Cc1cc(-c2ccc(NC(=O)[C@H]3CCCN3C(=O)Nc3ccc(C(C)C)cc3)cc2)cnc1C(=O)O [Example 58, 3-methyl-5-{4-[(1-{[4-(propan-2-yl)phenyl]carbamoyl}-D-prolyl)amino]phenyl}pyridine-2-carboxylic acid]
35 nM | O=C(O)c1ccc(-c2ccc(NC(=O)[C@H]3CCCN3C(=O)Nc3cc(Cl)cc(Cl)c3)cc2)cc1 [Example 59, 4′-({1-[(3,5-dichlorophenyl)carbamoyl]-D-prolyl}amino)[1,1′-biphenyl]-4-carboxylic acid]
21 nM | Cc1cc(C(=O)O)ccc1-c1ccc(NC(=O)[C@H]2CCCN2C(=O)Nc2ccc(C(C)C)cc2)cn1 [Example 60, 3-methyl-4-{5-[(1-{[4-(propan-2-yl)phenyl]carbamoyl}-D-prolyl)amino]pyridin-2-yl}benzoic acid]
150 nM | CC(C)c1ccc(NC(=O)N2CCC[C@@H]2C(=O)Nc2ccc(-c3ccc(C(=O)O)cc3)cc2)nc1 [Example 61, 4′-[(1-{[5-(propan-2-yl)pyridin-2-yl]carbamoyl}-D-prolyl)amino][1,1′-biphenyl]-4-carboxylic acid]
110 nM | CC(C)c1ccc(NC(=O)N2CCC[C@@H]2C(=O)Nc2ccc(-c3ccc(C(=O)O)cc3)cc2)cn1 [Example 62, 4′-[(1-{[6-(propan-2-yl)pyridin-3-yl]carbamoyl}-D-prolyl)amino][1,1′-biphenyl]-4-carboxylic acid]
6.2 nM | O=C(O)c1ccc(-c2ccc(NC(=O)[C@H]3CCCN3C(=O)Nc3ccc(Br)cc3)cc2)cc1 [Example 63, 4′-({1-[(4-bromophenyl)carbamoyl]-D-prolyl}amino)[1,1′-biphenyl]-4-carboxylic acid]
2.9 nM | CC(C)c1ccc(NC(=O)N2CCC[C@@H]2C(=O)Nc2ccc(-c3ccc(C(=O)O)cc3)cc2)cc1F [Example 64, 4′-[(1-{[3-fluoro-4-(propan-2-yl)phenyl]carbamoyl}-D-prolyl)amino][1,1′-biphenyl]-4-carboxylic acid]
13 nM | CC(C)c1ccc(NC(=O)N2CCC[C@@H]2C(=O)Nc2ccc(-c3ccc(C(=O)O)nc3)cc2F)cc1 [Example 65, 5-{3-fluoro-4-[(1-{[4-(propan-2-yl)phenyl]carbamoyl}-D-prolyl)amino]phenyl}pyridine-2-carboxylic acid]
390 nM | CC(C)c1ccc(NC(=O)N2CCC[C@@H]2C(=O)Nc2ccc(-c3cccc(O)c3F)cc2)cc1 [Example 66, (2R)-N^2-(2′-fluoro-3′-hydroxy[1,1′-biphenyl]-4-yl)-N^1-[4-(propan-2-yl)phenyl]pyrrolidine-1,2-dicarboxamide]
14 nM | Cc1cc(C(=O)O)cc(C)c1-c1ccc(NC(=O)[C@H]2CCCN2C(=O)Nc2ccc(C(C)C)cc2)cc1 [Example 67, 2,6-dimethyl-4′-[(1-{[4-(propan-2-yl)phenyl]carbamoyl}-D-prolyl)amino][1,1′-biphenyl]-4-carboxylic acid]
38 nM | CC(C)c1ccc(NC(=O)N2CCC[C@@H]2C(=O)Nc2ccc(-c3ccc(C(=O)O)c(C(F)(F)F)c3)cc2)cc1 [Example 68, 4′-[(1-{[4-(propan-2-yl)phenyl]carbamoyl}-D-prolyl)amino]-3-(trifluoromethyl)[1,1′-biphenyl]-4-carboxylic acid]
47 nM | Cc1cc(-c2ccc(NC(=O)[C@H]3CCCN3C(=O)Nc3ccc(C(C)C)cc3)cc2)cc(F)c1C(=O)O [Example 69, 3-fluoro-5-methyl-4′-[(1-{[4-(propan-2-yl)phenyl]carbamoyl}-D-prolyl)amino][1,1′-biphenyl]-4-carboxylic acid]
49 nM | CC(C)c1ccc(NC(=O)N2CCC[C@@H]2C(=O)Nc2ccc(-c3cc(F)c(C(=O)O)cc3Cl)cc2)cc1 [Example 70, 2-chloro-5-fluoro-4′-[(1-{[4-(propan-2-yl)phenyl]carbamoyl}-D-prolyl)amino][1,1′-biphenyl]-4-carboxylic acid]
2.5 nM | CC(C)c1ccc(NC(=O)N2CCC[C@@H]2C(=O)Nc2ccc(-c3ccc(C(=O)O)cc3C(C)C)cc2)cc1 [Example 71, 2-(propan-2-yl)-4′-[(1-{[4-(propan-2-yl)phenyl]carbamoyl}-D-prolyl)amino][1,1′-biphenyl]-4-carboxylic acid]
69 nM | O=C(O)c1ccc(-c2ccc(NC(=O)[C@H]3CCCN3C(=O)Nc3ccc(C(F)(F)F)nc3)cc2)cc1 [Example 72, 4′-[(1-{[6-(trifluoromethyl)pyridin-3-yl]carbamoyl}-D-prolyl)amino][1,1′-biphenyl]-4-carboxylic acid]
12 nM | O=C(O)c1ccc(-c2ccc(NC(=O)[C@H]3CCCN3C(=O)Nc3ccc(Cl)c(Cl)c3)cc2)cc1 [Example 73, 4′-({1-[(3,4-dichlorophenyl)carbamoyl]-D-prolyl}amino)[1,1′-biphenyl]-4-carboxylic acid]
82 nM | O=C(O)c1ccc(-c2ccc(NC(=O)[C@H]3CCCN3C(=O)Nc3cccc(Cl)c3)cc2)cc1 [Example 74, 4′-({1-[(3-chlorophenyl)carbamoyl]-D-prolyl}amino)[1,1′-biphenyl]-4-carboxylic acid]
